Results published in paper PMC8746696 (Molecules, 2021).
Where two headings read alike, the source gives them in different places.

What was measured:
recombinant human TDP2 = target: T1, recombinant human TDP2 (Homo sapiens, UniProt O95551); experiment: Gel-based TDP2 activity assay (removal of 5'-tyrosine from oligonucleotide, PAGE); format: biochemical; set-up: key to Tdp2 activity, c 200 µM / Tdp2 (inhibitor concentration 1 mM): TDP2 active (+); -: inactive (−); settings: for Tdp2 activity, c 200 µM: c 200 µM (Table S3 head); for Tdp2 (inhibitor concentration 1 mM) / remaining activity at 1000 µM: inhibitor 1 mM; for remaining activity at 1000 µM: residual enzyme activity, read-out: TDP2 (Inhibitor Concentration 1 mM), residual activity of TDP2
T1 sequence (O95551 1-362): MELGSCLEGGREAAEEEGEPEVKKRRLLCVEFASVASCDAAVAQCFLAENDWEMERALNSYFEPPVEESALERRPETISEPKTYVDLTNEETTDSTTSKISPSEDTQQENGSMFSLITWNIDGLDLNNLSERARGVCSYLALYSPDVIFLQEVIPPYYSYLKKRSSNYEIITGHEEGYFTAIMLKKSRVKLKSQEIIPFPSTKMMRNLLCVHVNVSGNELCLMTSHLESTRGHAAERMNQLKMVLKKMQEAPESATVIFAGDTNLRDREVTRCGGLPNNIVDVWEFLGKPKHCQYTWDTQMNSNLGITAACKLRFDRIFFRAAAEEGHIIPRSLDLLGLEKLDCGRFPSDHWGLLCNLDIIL
Protocol: We investigated the activity against the TDP2 enzyme for compounds 4–10, 12–15, and 17–19 (Table 1). TDP2 was tested for its ability to eliminate tyrosine residue from the 5’-end of the oligonucleotide substrate. The TDP2 reaction products were separated under denaturing conditions in polyacrylamide gel (PAGE). […] Note that as different assays formats were used for TDP1 and TDP2 inhibition, the value of these assays cannot be directly compared. A paper on derivatives of usnic acid as effective TDP1 inhibitors and mild inhibitors of TDP2 was recently published. […] More inhibitors of this enzyme have also been reported in the literature. Obviously, further work for increasing activity against TDP2 is needed.
The oligonucleotide with tyrosine residue on the 5′-end (5′-tyrosine-AAC GTC AGG GTC TTC C-FAM-3′) was used for the TDP2 enzyme activity assay. The TDP2 reaction products were separated under denaturing conditions in polyacrylamide gel (PAGE). The reaction was performed in a final volume of 20 μL using 100 nM substrate incubated with 200 nM recombinant human TDP2 in the absence or presence of the inhibitor for 10 min at 37 °C in a buffer containing 50 mM Tris-HCl, pH 8.0, 50 mM NaCl, 7 mM β-mercaptoethanol. Reactions were terminated by the addition of gel loading buffer contained 10% formamide, 7 M carbamide, 0.1% xylene cyanol, and 0,1% bromophenol blue. The samples were heated at 90 °C for 7 min before loading on the gel. The reaction products were separated by electrophoresis in a 20% denaturing PAGE with 7 M carbamide. A Typhoon FLA 9500 phosphorimager (GE Healthcare) was used for gel scanning and imaging. Each experiment was carried out in three independent replicates. The data were analyzed with QuantityOne 4.6.7 software.

TDP1 = TDP1 (Homo sapiens, UniProt Q9NUW8); experiment: Real-time fluorescence detection of TDP1 activity (FAM/BHQ1 oligonucleotide biosensor); format: biochemical
Source text: For real-time detection of TDP1 activity, we used the oligonucleotide biosensor based on the ability of TDP1 to remove fluorophore quenchers from the 3′-end of DNA [29]. The hexadecameric oligonucleotide carried 5(6)-carboxyfluorescein (FAM) at the 5′-end and fluorophore quencher BHQ1 (Black Hole Quencher-1) at the 3′-end. TDP1 inhibitors prevent the removal of fluorophore quenchers, thus reducing fluorescence intensity.
TDP1 activity was detected, as described by intensity measurement in a reaction of quencher removal from a fluorophore quencher–coupled DNA oligonucleotide catalyzed by TDP1. The reaction was carried out at different concentrations of inhibitors (the control samples contained 1% of DMSO). The reaction mixtures contained TDP1 buffer (50 mM Tris-HCl pH 8.0, 50 mM NaCl, and 7 mM β-mercaptoethanol), 50 nM biosensor, and an inhibitor being tested. Purified TDP1 (1.5 nM) triggered the reaction. The biosensor (5′-[FAM] AAC GTC AGGGTC TTC C [BHQ]-3′) was synthesized in the Laboratory of Nucleic Acid Chemistry at the Institute of Chemical Biology and Fundamental Medicine (Novosibirsk, Russia).
The reactions were incubated on a POLARstar OPTIMA fluorimeter (BMG LABTECH, GmbH, Ortenberg, Germany) to measure fluorescence every 60 s (ex. 485/em. 520 nm) during the linear phase (here, data from minute 0 to minute 8). The values of IC50 were determined using a six-point concentration response curve in a minimum of three independent experiments and were calculated using MARS Data Analysis 2.0 (BMG LABTECH, Ortenberg, Germany).

[1] = Intrinsic cytotoxicity, EZ4U assay, HeLa; settings: human, HeLa cells
Protocol: (§1) Next, we examined the intrinsic cytotoxicity of the compounds on HeLa cervical cancer cells and human embryonic kidney derived cells HEK293A.
(§2) Cytotoxicity of the compounds to HeLa (human cervical cancer) and HEK293A (human embryonic kidney) cell lines was examined using the EZ4U Cell Proliferation and Cytotoxicity Assay (Biomedica, Vienna, Austria), according to the manufacturer’s protocols. The cells were grown in Iscove’s modified Dulbecco’s medium (IMDM) with 40 μg/mL gentamicin, 50 IU/mL penicillin, 50 μg/mL streptomycin (MP Biomedicals, Waltham, MA, USA), and 10% of fetal bovine serum (Biolot, Saint Petersburg, Russia) in a 5% CO2 atmosphere. After the formation of a 30–50%monolayer, the tested compounds were added to the medium. […] The volume of the added reagents was 1/100 of the total volume of the culture medium, and the amount of DMSO was 1% of the final volume. Control cells were grown in the presence of 1% DMSO. The cell culture was monitored for three days.

[2] = Intrinsic cytotoxicity, EZ4U assay, HEK293A; settings: human, HEK293A cells
Protocol: as §1, §2

[3] = read-out: IC50 (Tdp1, Table S4)
[4] = concentration that inhibits the activity of the enzyme by 50%, read-out: TDP1 IC50

Sequence of TDP1 (Q9NUW8 whole entry): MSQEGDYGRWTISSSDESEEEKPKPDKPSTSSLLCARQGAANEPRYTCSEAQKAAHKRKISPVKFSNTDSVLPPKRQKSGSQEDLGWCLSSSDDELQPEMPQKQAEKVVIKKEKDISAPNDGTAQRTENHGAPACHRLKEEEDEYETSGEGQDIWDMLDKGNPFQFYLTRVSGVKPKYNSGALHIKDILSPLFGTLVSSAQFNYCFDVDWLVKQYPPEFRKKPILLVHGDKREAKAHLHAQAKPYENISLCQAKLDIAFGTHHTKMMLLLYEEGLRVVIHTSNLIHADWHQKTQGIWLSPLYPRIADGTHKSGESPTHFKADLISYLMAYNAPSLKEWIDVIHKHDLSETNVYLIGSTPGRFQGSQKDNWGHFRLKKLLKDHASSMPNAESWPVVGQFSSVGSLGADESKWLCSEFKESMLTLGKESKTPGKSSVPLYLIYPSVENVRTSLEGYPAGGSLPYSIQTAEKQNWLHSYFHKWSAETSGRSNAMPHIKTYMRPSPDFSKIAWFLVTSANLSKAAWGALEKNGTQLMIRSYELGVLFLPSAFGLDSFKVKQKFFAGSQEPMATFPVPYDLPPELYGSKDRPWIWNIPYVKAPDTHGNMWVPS

SMILES | Tdp2 activity, c 200 µM (recombinant human TDP2) | Tdp2 (inhibitor concentration 1 mM) (recombinant human TDP2) | IC50 (TDP1; [3]) | melting point | CC50 at 72 h [1] | remaining activity at 1000 µM (recombinant human TDP2) | IC50 (TDP1; [4]) | CC50 at 72 h [2]
C[C@H](CCC(=O)O)[C@H]1CC[C@H]2[C@@H]3CC[C@@H]4C[C@H](OCc5ccccc5)CC[C@]4(C)[C@H]3C[C@H](OCc3ccccc3)[C@]12C [Compound 1, 3α,12α-Dibenzyloxy-5β-cholan-24-oic acid] | + | + | 440 nM | 181.2 °C (dec.) |  |  |  | 
C[C@H](CCC(=O)O)[C@H]1CC[C@H]2[C@@H]3CC[C@@H]4C[C@H](OCc5ccccc5)CC[C@]4(C)[C@H]3C[C@H](O)[C@]12C [Compound 2, 3α-Benzyloxy-12α-hydroxy-5β-cholan-24-oic Acid] | + | + | 18300 nM | 86 °C (dec.) |  |  |  | 
C[C@H](CCC(=O)O)[C@H]1CC[C@H]2[C@@H]3CC[C@@H]4C[C@H](OCc5ccccc5)CC[C@]4(C)[C@H]3CC(=O)[C@]12C [Compound 3, 3α-Benzyloxy-12α-oxo-5β-cholan-24-oic Acid] | + | + | 780 nM | 147.9 °C |  |  |  | 
C[C@H](CCC(=O)NCCc1c[nH]c2ccccc12)[C@H]1CC[C@H]2[C@@H]3CC[C@@H]4C[C@H](OCc5ccccc5)CC[C@]4(C)[C@H]3C[C@H](OCc3ccccc3)[C@]12C [Compound 4, N-(2″-(1H-Indol-3′-yl)ethyl)-3α,12α-dibenzyloxy-5β-cholane-24-amide] | + | + |  |  | > 100000 nM | 35 ± 4% | 750 ± 170 nM | > 100000 nM
C[C@H](CCC(=O)NCCc1c[nH]c2ccccc12)[C@H]1CC[C@H]2[C@@H]3CC[C@@H]4C[C@H](OCc5ccccc5)CC[C@]4(C)[C@H]3CC(=O)[C@]12C [Compound 6, N-(2″-(1H-Indol-3′-yl)ethyl)-3α-benzyloxy-12-oxo-5β-cholane-24-amide] | + | + |  |  | > 100000 nM | 45 ± 4% | 590 ± 130 nM | > 100000 nM
C[C@H](CCC(=O)Nc1ccc(Br)cc1)[C@H]1CC[C@H]2[C@@H]3CC[C@@H]4C[C@H](OCc5ccccc5)CC[C@]4(C)[C@H]3C[C@H](OCc3ccccc3)[C@]12C [Compound 7, N-(4′-Bromophenyl)-3α,12α-dibenzyloxy-5β-cholane-24-amide] | + | + |  | 186.2 to 191.3 °C |  | 44 ± 5% | 970 ± 460 nM | 
C[C@H](CCC(=O)Nc1ccc(Br)cc1)[C@H]1CC[C@H]2[C@@H]3CC[C@@H]4C[C@H](OCc5ccccc5)CC[C@]4(C)[C@H]3CC(=O)[C@]12C [Compound 9, N-(4′-Bromophenyl)-3α-benzyloxy-12-oxo-5β-cholane-24-amide] | + | + |  |  | > 100000 nM | 39 ± 6% | 710 ± 340 nM | > 100000 nM
C[C@H](CCC(=S)Nc1ccc(Br)cc1)[C@H]1CC[C@H]2[C@@H]3CC[C@@H]4C[C@H](OCc5ccccc5)CC[C@]4(C)[C@H]3C[C@H](OCc3ccccc3)[C@]12C [Compound 11, N-(4′-Bromophenyl)-3α,12α-dibenzyloxy-5β-cholane-24-thioamide] |  |  |  | 58 °C (dec.) |  |  |  | 
C[C@H](CCC(=O)O/N=C(\N)Cc1ccc(Br)cc1)[C@H]1CC[C@H]2[C@@H]3CC[C@@H]4C[C@H](OCc5ccccc5)CC[C@]4(C)[C@H]3C[C@H](OCc3ccccc3)[C@]12C [Compound 12] | + | + |  | 80.2 to 83.9 °C |  | < 50% | 320 ± 130 nM | 
C[C@H](CCc1nc(Cc2ccc(Br)cc2)no1)[C@H]1CC[C@H]2[C@@H]3CC[C@@H]4C[C@H](OCc5ccccc5)CC[C@]4(C)[C@H]3C[C@H](OCc3ccccc3)[C@]12C [Compound 13, 5′-(24-Nor-3α,12α-dibenzyloxy-5β-cholan-23-yl)-3′-(methyl(4″-bromophenyl))-1′,2′,4′-oxadiazole] | - | - |  |  |  | > 50% | 530 ± 230 nM | 
C[C@H](CCC(=O)O/N=C(\N)c1ccc(Br)cc1)[C@H]1CC[C@H]2[C@@H]3CC[C@@H]4C[C@H](OCc5ccccc5)CC[C@]4(C)[C@H]3C[C@H](OCc3ccccc3)[C@]12C [Compound 14] | + | + |  | 144.5 to 147.4 °C |  | < 50% | 330 ± 150 nM | 
C[C@H](CCc1nc(-c2ccc(Br)cc2)no1)[C@H]1CC[C@H]2[C@@H]3CC[C@@H]4C[C@H](OCc5ccccc5)CC[C@]4(C)[C@H]3C[C@H](OCc3ccccc3)[C@]12C [Compound 15, 5′-(24-Nor-3α,12α-Dibenzyloxy-5β-cholan-23-yl)-3′-(4″-bromophenyl)-1′,2′,4′-oxadiazole] | - | - |  | 130.2 to 135.5 °C |  | > 50% | 420 ± 300 nM | 
COC(=O)CC[C@@H](C)[C@H]1CC[C@H]2[C@@H]3CC[C@@H]4C[C@H](OCc5ccccc5)CC[C@]4(C)[C@H]3C[C@H](OCc3ccccc3)[C@]12C [Compound 16, Methyl 3α,12α-Dibenzyloxy-5β-cholan-24-oate] | - | - |  | 93.3 to 93.7 °C |  |  |  | 
C[C@H](CCC(=O)NN)[C@H]1CC[C@H]2[C@@H]3CC[C@@H]4C[C@H](OCc5ccccc5)CC[C@]4(C)[C@H]3C[C@H](OCc3ccccc3)[C@]12C [Compound 17, 3α,12α-Dibenzyloxy-5β-cholan-24-hydrazide] | + | + |  | 179 to 180 °C |  | > 50% | 230 ± 80 nM | 
C[C@H](CCC(=O)N/N=C/c1ccc(Br)cc1)[C@H]1CC[C@H]2[C@@H]3CC[C@@H]4C[C@H](OCc5ccccc5)CC[C@]4(C)[C@H]3C[C@H](OCc3ccccc3)[C@]12C [Compound 18, N’-(4″-Bromobenzylidene)-3α,12α-dibenzyloxy-5β-cholan-24-hydrazide] | + | + |  | 147.7 to 150 °C |  | < 50% | 510 ± 210 nM | 
C[C@H](CCc1nnc(-c2ccc(Br)cc2)o1)[C@H]1CC[C@H]2[C@@H]3CC[C@@H]4C[C@H](OCc5ccccc5)CC[C@]4(C)[C@H]3C[C@H](OCc3ccccc3)[C@]12C [Compound 19, 2′-(24-Nor-3α,12α-dibenzyloxy-5β-cholan-23-yl)-5′-(4″-bromophenyl)-1′,3′,4′-oxadiazole] |  |  |  | 131.4 °C (dec.) |  | < 50% | 1010 ± 430 nM | 
